{"source": "patent US9682999B2", "about": "“Benzofuran compounds for the treatment of hepatitis C virus infections” (Glaxo Group Limited, priority 2011, dated 2017)", "key": {"[1]": {"assay": "In vivo pharmacokinetic study, rat", "experimental": "(§1) In vivo pharmacokinetic studies were conducted in mouse, rat, dog, or cynomolgus monkey to determine clearance, oral exposure and bioavailability (% F). Solution doses of the compounds were administered intravenously through catheters or orally by gavage. Blood samples were collected at the following time points (n=2 or 3/route/species): 0.083 (IV only), 0.167 (IV only), 0.25, 0.5, 1, 2, 4, 6, 8, 12, and 24 h. Non-compartmental pharmacokinetic parameters were determined using Phoenix Winnonlin 6.1 (Pharsight, Mountain View, Calif.). Bioavailability of the oral formulation of each compound were calculated as the ratio of the oral dose normalized AUCinf to the intravenous dose normalized AUCinf. Results are expressed in Table 2."}, "[2]": {"tested_on": "sub-genomic HCV NS3-NS5B replicon genotype 1a (Huh-7 cells)", "assay": "Replicon luciferase cell based assay, genotype 1a", "conditions": "Hepatitis C virus; Huh-7 genotype 1a luciferase replicon, 48 hours; read-out: EC50 GT 1a", "in_short": "(§2)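 Huh-7 cells stably carrying luciferase-linked NS3-NS5B replicons (1b ET, 1a H77 with P1496L/S2204I, plus C316N/C316Y NS5B mutants) treated with a 10-point 1:3 compound series for 48 h at 37 °C. Inhibition read as Steady-Glo luminescence against compound-free cells after background subtraction. EC50 from curve fit, averaged over two plates.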"}, "[3]": {"assay": "In vivo pharmacokinetic study, dog", "experimental": "as §1"}, "[4]": {"assay": "In vivo pharmacokinetic study, monkey", "set-up": "species or system cynomolgus monkey", "experimental": "as §1"}, "[5]": {"assay": "Hepatocyte incubations, metabolic stability", "format": "in vitro ADME", "set-up": "dose or concentration left out as unconfirmed", "conditions": "cryopreserved human hepatocytes, 0.25×10^6 cells, up to 120 min, 37 C", "experimental": "Hepatocyte incubations were conducted using cryopreserved hepatocytes purchased from CellzDirect (Durham, N.C.). Cryopreserved hepatocytes were removed from liquid nitrogen and thawed according to XenoTech's guidelines listed in “XenoTech Protocol for Thawing Cryopreserved Hepatocytes” using Hepatocyte Isolation Kit K2000 (Dec. 13, 2004). Hepatocytes were diluted to 1 million cells in 1 mL of Williams E media containing 25 mM HEPES buffer and 2 mM Glutamax.\nHepatocyte incubations were carried out in 96-well plates on an Eppendorf shaker at 350 rpm at 37 C. Reaction mixtures consisted of 0.25×10^6 cells and […] test compound (to maintain a 0.05% final DMSO concentration) in a final volume of 0.5 mL. An initial time-point (t0) was collected and subsequent aliquots were collected at 15, 30, 60, 90, and 120 min. Reactions were terminated by transferring […] of the incubation mixture into a 96-well plate containing […] of an organic mixture [acetonitrile and methanol (80:20)] at 4° C. Precipitated protein was removed by centrifugation and the resultant supernatant was transferred to a new 96-well polypropylene plate for LC/MS/MS analysis. Drug-free matrix control and 2 QC standards (phenacetin and propranolol) were included in each experiment and treated in the same manner as test compound.\nMetabolic stability expressed as the percentage of parent compound remaining was calculated from the peak area ratio of compound remaining after incubation (tx) compared to the time zero (t0) incubation.\nThe half-life (t1/2) was calculated using the following equation: […]\nWhere K is the slope of the ln % remaining vs. time regression. Half-life values were only reported when at least 15% loss of parent compound was observed."}, "[6]": {"assay": "In vivo pharmacokinetic study, mouse", "experimental": "as §1"}, "[7]": {"tested_on": "sub-genomic HCV NS3-NS5B replicon genotype 1b C316N (Huh-7 cells)", "assay": "Replicon luciferase cell based assay, genotype 1b C316N", "conditions": "Hepatitis C virus, Huh-7, 48 h, read-out: EC50 1b 316N", "in_short": "as §2"}, "[8]": {"tested_on": "sub-genomic HCV NS3-NS5B replicon genotype 1a C316Y (Huh-7 cells)", "assay": "Replicon luciferase cell based assay, genotype 1a C316Y", "conditions": "Hepatitis C virus, Huh-7, 48 h, read-out: EC50 1a 316Y", "in_short": "as §2"}, "[9]": {"tested_on": "sub-genomic HCV NS3-NS5B replicon genotype 1b (Huh-7 cells)", "assay": "Replicon luciferase cell based assay, genotype 1b", "conditions": "Hepatitis C virus; Huh-7 genotype 1b luciferase replicon, 48 hours; read-out: EC50 GT1b", "in_short": "as §2"}}, "data": [{"smiles": "CNC(=O)c1c(-c2ccc(F)cc2)oc2cc(N(c3ccc(B(O)O)c(Cl)c3)S(C)(=O)=O)c(C3CC3)cc12", "note": "[Example 1, (2-Chloro-4-(N-(5-cyclopropyl-2-(4-fluorophenyl)-3-(methylcarbamoyl)benzofuran-6-yl)methylsulfonamido)phenyl)boronic acid]", "values": [{"measurement": "DNAUC", "setting": "[1]; Rat", "value": 567, "unit": "ng·h/mL/mg/kg"}, {"measurement": "T 1/2", "setting": "[1]; Rat", "value": 2.9, "unit": "H"}, {"measurement": "clearance", "setting": "[1]; rat, blood, intravenous", "value": 7.5, "unit": "mL/min/kg"}, {"measurement": "Vd", "setting": "[1]; rat, blood, intravenous, read-out: Vss", "value": 1.3, "unit": "L/kg"}, {"measurement": "bioavailability", "setting": "[1]; rat, blood, oral", "value": 23, "unit": "%"}, {"measurement": "EC50", "setting": "[2]", "value": "1 to 10", "unit": "nM"}, {"measurement": "DNAUC", "setting": "[3]; Dog", "value": 6438, "unit": "ng·h/mL/mg/kg"}, {"measurement": "T 1/2", "setting": "[3]; Dog", "value": 8.7, "unit": "H"}, {"measurement": "clearance", "setting": "[3]; dog, blood, intravenous", "value": 2.3, "unit": "mL/min/kg"}, {"measurement": "Vd", "setting": "[3]; dog, blood, intravenous, read-out: Vss", "value": 1.6, "unit": "L/kg"}, {"measurement": "bioavailability", "setting": "[3]; dog, blood, oral", "value": 83, "unit": "%"}, {"measurement": "DNAUC", "setting": "[4]; Monkey", "value": 2953, "unit": "ng·h/mL/mg/kg"}, {"measurement": "T 1/2", "setting": "[4]; Monkey", "value": 3.7, "unit": "H"}, {"measurement": "clearance", "setting": "[4]; cynomolgus monkey, blood, intravenous", "value": 2.2, "unit": "mL/min/kg"}, {"measurement": "Vd", "setting": "[4]; cynomolgus monkey, blood, intravenous, read-out: Vss", "value": 0.5, "unit": "L/kg"}, {"measurement": "bioavailability", "setting": "[4]; cynomolgus monkey, blood, oral", "value": 51, "unit": "%"}, {"measurement": "half-life", "setting": "[5]", "value": "> 6", "unit": "h"}, {"measurement": "DNAUC", "setting": "[6]; Mouse", "value": 6688, "unit": "ng·h/mL/mg/kg"}, {"measurement": "T 1/2", "setting": "[6]; Mouse", "value": 5.5, "unit": "H"}, {"measurement": "clearance", "setting": "[6]; mouse, blood, intravenous", "value": 0.9, "unit": "mL/min/kg"}, {"measurement": "Vd", "setting": "[6]; mouse, blood, intravenous, read-out: Vss", "value": 0.4, "unit": "L/kg"}, {"measurement": "bioavailability", "setting": "[6]; mouse, blood, oral", "value": 37, "unit": "%"}, {"measurement": "EC50", "setting": "[7]", "value": "1 to 10", "unit": "nM"}, {"measurement": "EC50", "setting": "[8]", "value": "1 to 10", "unit": "nM"}, {"measurement": "EC50", "setting": "[9]", "value": "1 to 10", "unit": "nM"}]}]}
